Reference: ChEMBL document CHEMBL1201862, “PubChem BioAssay data set” (2004)
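1) Cells in 96-well plates. 2) Compound, 48 h, 5 concentrations. 3) Linear interpolation between surrounding doses. 4) Unreached endpoint = highest concentration. The concentration for 50% growth inhibition is given as GI50.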 Activity calls are given as the source filed them. Rule as the data show it: active = GI50 up to about 1.1 µM and inactive = higher.

Assays:
Experiment in all cases: inhibition of tumour cell growth, NCI panel, 48 h
K562 = tested on: K562
SW-620 = tested on: SW-620
U-251 = tested on: U-251
ACHN = tested on: ACHN
IGROV-1 = tested on: IGROV-1
PC-3 = tested on: PC-3
HCT-116 = tested on: HCT-116
RPMI-8226 = tested on: RPMI-8226
NCI-H522 = tested on: NCI-H522
OVCAR-4 = tested on: OVCAR-4
SF-539 = tested on: SF-539
OVCAR-8 = tested on: OVCAR-8
MOLT-4 = tested on: MOLT-4
EKVX = tested on: EKVX
SR = tested on: SR
OVCAR-3 = tested on: OVCAR-3
HT-29 = tested on: HT-29
SK-MEL-2 = tested on: SK-MEL-2
SK-MEL-5 = tested on: SK-MEL-5

| SMILES | GI50 (K562) | GI50 (SW-620) | GI50 (U-251) | GI50 (ACHN) | GI50 (IGROV-1) | GI50 (PC-3) | GI50 (HCT-116) | GI50 (RPMI-8226) | GI50 (NCI-H522) | GI50 (OVCAR-4) | GI50 (SF-539) | GI50 (OVCAR-8) | GI50 (MOLT-4) | GI50 (EKVX) | GI50 (SR) | GI50 (OVCAR-3) | GI50 (HT-29) | GI50 (SK-MEL-2) | GI50 (SK-MEL-5) |
| --- | --- | --- | --- | --- | --- | --- | --- | --- | --- | --- | --- | --- | --- | --- | --- | --- | --- | --- | --- |
| [N-]=[N+]=Nc1cc(=O)n2c3c(cccc13)CCC2 | > 100 µM (inactive) | > 100 µM (inactive) | > 100 µM (inactive) | > 100 µM (inactive) | > 100 µM (inactive) | > 100 µM (inactive) | > 100 µM (inactive) | > 100 µM (inactive) | > 100 µM (inactive) | > 100 µM (inactive) | > 100 µM (inactive) | > 100 µM (inactive) | > 100 µM (inactive) | 43.7 µM (inactive) | > 100 µM (inactive) | > 100 µM (inactive) | > 100 µM (inactive) | – | – |
| C[C@@](O)(/C=C/[C@H]1CC=CC(=O)O1)[C@@H](C[C@@H](O)\C=C/C=C\C=C\CO)OP(=O)(O)O [FOSTRIECIN SODIUM] | 1.6 µM (inactive) | 9.29 µM (inactive) | 17.1 µM (inactive) | 4.51 µM (inactive) | 5.14 µM (inactive) | 4.48 µM (inactive) | 3.26 µM (inactive) | 1.1 µM (active) | 17.3 µM (inactive) | 5.27 µM (inactive) | 7.23 µM (inactive) | 9.48 µM (inactive) | – | 16.5 µM (inactive) | 3.99 µM (inactive) | – | 1.75 µM (inactive) | 11.2 µM (inactive) | 4.67 µM (inactive) |
| CC(C)(C)C1=NC(=P(c2ccccc2)(c2ccccc2)c2ccccc2)C(=O)O1 | > 100 µM (inactive) | > 100 µM (inactive) | > 100 µM (inactive) | > 100 µM (inactive) | > 100 µM (inactive) | > 100 µM (inactive) | > 100 µM (inactive) | > 100 µM (inactive) | 20.2 µM (inactive) | – | – | > 100 µM (inactive) | > 100 µM (inactive) | 22.5 µM (inactive) | > 100 µM (inactive) | – | > 100 µM (inactive) | > 100 µM (inactive) | > 100 µM (inactive) |
| CCOC(=O)C1=CCOc2cc(N(C)C)ccc21 | 26.9 µM (inactive) | > 100 µM (inactive) | > 100 µM (inactive) | > 100 µM (inactive) | > 100 µM (inactive) | > 100 µM (inactive) | > 100 µM (inactive) | > 100 µM (inactive) | 45.3 µM (inactive) | – | > 100 µM (inactive) | > 100 µM (inactive) | – | > 100 µM (inactive) | 65.9 µM (inactive) | 21.7 µM (inactive) | > 100 µM (inactive) | 75 µM (inactive) | > 100 µM (inactive) |
| CCC(C)(C)c1ccc(OCCCCNC(=O)c2ccc3ccccc3c2O)c(C(C)(C)CC)c1 | 4.54 µM (inactive) | 18.3 µM (inactive) | 43 µM (inactive) | 16 µM (inactive) | 31.2 µM (inactive) | 6.08 µM (inactive) | 17.6 µM (inactive) | – | 14.6 µM (inactive) | > 100 µM (inactive) | 33.1 µM (inactive) | 27.5 µM (inactive) | 16.1 µM (inactive) | 21.8 µM (inactive) | > 100 µM (inactive) | 19.4 µM (inactive) | 44.7 µM (inactive) | 30.8 µM (inactive) | 19.3 µM (inactive) |
| N#Cc1nc(CSCc2ccccc2)oc1N | – | > 100 µM (inactive) | > 100 µM (inactive) | > 100 µM (inactive) | > 100 µM (inactive) | > 100 µM (inactive) | > 100 µM (inactive) | – | 42.6 µM (inactive) | > 100 µM (inactive) | > 100 µM (inactive) | > 100 µM (inactive) | > 100 µM (inactive) | – | > 100 µM (inactive) | > 100 µM (inactive) | > 100 µM (inactive) | > 100 µM (inactive) | – |
| O=C1C(NCCc2cc(Cl)c(O)c(Cl)c2)=CC(=O)c2[nH]cnc21 | 26 µM (inactive) | 47.8 µM (inactive) | 39.7 µM (inactive) | 47 µM (inactive) | 18.5 µM (inactive) | 45.9 µM (inactive) | 27.1 µM (inactive) | 46.7 µM (inactive) | 12.8 µM (inactive) | – | 39.5 µM (inactive) | 32.2 µM (inactive) | 24.3 µM (inactive) | 32.1 µM (inactive) | 32.6 µM (inactive) | 17.7 µM (inactive) | 40.4 µM (inactive) | 19.2 µM (inactive) | 17.3 µM (inactive) |
| COc1ccc(N2C(=O)C3ON(C(C(N)=O)c4ccccc4)C(c4ccc(-c5ccccc5)cc4)C3C2=O)cc1 (stereo unspecified) | > 50 µM (inactive) | > 50 µM (inactive) | > 50 µM (inactive) | > 50 µM (inactive) | 48.8 µM (inactive) | > 50 µM (inactive) | > 50 µM (inactive) | 16.8 µM (inactive) | 48.3 µM (inactive) | > 50 µM (inactive) | > 50 µM (inactive) | > 50 µM (inactive) | > 50 µM (inactive) | > 50 µM (inactive) | > 50 µM (inactive) | > 50 µM (inactive) | 24.8 µM (inactive) | > 50 µM (inactive) | – |
